In US10174029B2, “Pyrimidine-2,4-diamine derivatives for treatment of cancer” (THOMAS HELLEDAYS STIFTELSE FOR MEDICINSK FORSKNING, priority 2012, dated 2019) one finds IC50 data, which are given here for 42 molecules.

In general, IC50 refers to the point on the concentration scale where inhibition reaches its midpoint.

The target in one assay is MTH1 (Homo sapiens, UniProt P36639). Kind of assay: MTH1 enzymatic assay and IC50 value determination (malachite green). The settings on record: MTH1 4.8 nM, dGTP 100 μM, 15 minutes at 22° C.; group: between 2 μM and 10 μM. Format: biochemical. The protocol: MTH1 Enzymatic Assay and IC50 Value Determination
MTH1 catalyzes the hydrolysis of dGTP to dGMP and PPi. By coupling the reaction to pyrophosphatase added in excess PPi is converted to Pi that can be detected by using the malachite green assay reagent. Briefly, for IC50 value determination the compound to be analyzed is diluted in assay buffer in a 1:3 dilution series generating 12 different compound concentrations giving a final DMSO concentration of 1% in the assay well. MTH1 diluted in assay buffer (100 mM Tris-acetate, 40 mM NaCl, 10 mM magnesium acetate, 1 mM DTT and 0.005% Tween 20) fortified with E. coli pyrophosphatase (0.8 U/ml) is added to a final concentration of 4.8 nM. dGTP diluted in assay buffer is added to a final concentration of 100 μM. The reaction mixture is incubated with shaking for 15 minutes at 22° C. To 100 μl reaction mixture is 25 μl Malachite green assay regent (0.095% Malachite green in 17% H2SO4, 1.5% Ammonium molybdate, 0.17% Tween 20) added followed by incubation with shaking for 15 minutes at 22° C.
The absorbance of the assay plate is read at 630 nm using an EnVision Multilabel plate reader. The IC50 value is determined by fitting a dose response curve to the data points using nonlinear regression analysis and the equation Y=Bottom+(Top−Bottom)/(1+10^((Log IC50−X)*HillSlope)), where Y is the read absorbance at 630 nm and X is log [compound].
Take `Cc1cccc(-c2cc(NCCN3CCCCC3)nc(N)n2)c1C` [Example 112, 6-(2,3-dimethylphenyl)-4-N-[2-(piperidin-1-yl)ethyl]pyrimidine-2,4-diamine]: the IC50 lay within 2 to 10 µM. `Cc1ccc(S(=O)(=O)n2cc(-c3cc(NC(C)(C)C)nc(N)n3)c3ccccc32)cc1` [Example 161, 4-N-tert-butyl-6-[1-(4-methylbenzenesulfonyl)-1H-indol-3-yl]pyrimidine-2,4-diamine] returned an IC50 of 2 to 10 µM. Still for that read-out and setting: then `Cc1cccc(-c2cc(N[C@H](C)C3CC3)nc(N)n2)c1C` [Example 166, 4-N-[(1R)-1-cyclopropylethyl]-6-(2,3-dimethylphenyl)pyrimidine-2,4-diamine], with 2 to 10 µM.

`Cc1ccc(S(=O)(=O)n2cc(-c3cc(N[C@H](C)C4CC4)nc(N)n3)c3ccccc32)cc1` [Example 167, 4-N-[(1R)-1-cyclopropylethyl]-6-[1-(4-methylbenzenesulfonyl)-1H-indol-3-yl]pyrimidine-2,4-diamine]: the half-inhibitory concentration (IC50) was in the range of 2 to 10 µM. On the same count and under the same terms, then `C[C@@H](Nc1cc(-c2cccc(Cl)c2Cl)nc(N)n1)C1CC1` [Example 179, 4-N-[(1R)-1-cyclopropylethyl]-6-(2,3-dichlorophenyl)pyrimidine-2,4-diamine], with 2 to 10 µM; and `CC(C)(C)CNc1cc(-c2cccc(Cl)c2Cl)nc(N)n1` [Example 180, 6-(2,3-dichlorophenyl)-4-N-(2,2-dimethylpropyl)pyrimidine-2,4-diamine], with 2 to 10 µM; and `Cc1cccc(-c2cc(NCC(C)(C)C)nc(N)n2)c1C` [Example 181, 6-(2,3-dimethylphenyl)-4-N-(2,2-dimethylpropyl)pyrimidine-2,4-diamine], with 2 to 10 µM. On the same count and under the same terms, the figure for `Cc1ccc(S(=O)(=O)n2cc(-c3cc(NCC(C)(C)C)nc(N)n3)c3ccccc32)cc1` [Example 182, 4-N-(2,2-dimethylpropyl)-6-[1-(4-methylbenzenesulfonyl)-1H-indol-3-yl]pyrimidine-2,4-diamine] is 2 to 10 µM.

The assay is the same for the next values; noted with them: MTH1 4.8 nM, dGTP 100 μM, 15 minutes at 22° C.; group: less than 200 nM.
`CNc1cc(-c2ccc(C(=O)OC)cc2)nc(N)n1` [Example 103, methyl 4-[2-amino-6-(methylamino)pyrimidin-4-yl]benzoate]: the half-inhibitory concentration (IC50) is below 0.2 µM. Same read-out and setting: then `CNc1cc(-c2ccc(O)c(Cl)c2Cl)nc(N)n1` [Example 105, 4-[2-amino-6-(methylamino)pyrimidin-4-yl]-2,3-dichlorophenol], with below 0.2 µM; and `CNc1cc(-c2ccc(C=O)cc2)nc(N)n1` [Example 108, 4-[2-amino-6-(methylamino)pyrimidin-4-yl]benzaldehyde], with below 0.2 µM. In the case of `CNC(=O)c1ccc(-c2cc(NC)nc(N)n2)cc1` [Example 110, 4-[2-amino-6-(methylamino)pyrimidin-4-yl]-N-methylbenzamide], the IC50 is below 0.2 µM. The same measure, in the same setting: then `C=Cc1ccc(-c2cc(NC)nc(N)n2)cc1` [Example 111, 6-(4-ethenylphenyl)-4-N-methylpyrimidine-2,4-diamine], with below 0.2 µM. Still for that read-out and setting: then `CNc1cc(-c2cccc(C(=O)Nc3ccc(C)cc3)c2)nc(N)n1` [Example 115, 3-[2-amino-6-(methylamino)pyrimidin-4-yl]-N-(4-methylphenyl)benzamide], with below 0.2 µM; and `CNc1cc(-c2ccnc(OC)c2Cl)nc(N)n1` [Example 120, 6-(3-chloro-2-methoxypyridin-4-yl)-4-N-methylpyrimidine-2,4-diamine], with below 0.2 µM; and `COc1ccccc1CCNc1cc(-c2cccc(C)c2C)nc(N)n1` [Example 126, 6-(2,3-dimethylphenyl)-4-N-[2-(2-methoxyphenyl)ethyl]pyrimidine-2,4-diamine], with below 0.2 µM. The same measure, in the same setting: then `Cc1ccc(CCNc2cc(-c3cccc(C)c3C)nc(N)n2)cc1` [Example 127, 6-(2,3-dimethylphenyl)-4-N-[2-(4-methylphenyl)ethyl]pyrimidine-2,4-diamine], with below 0.2 µM; and `Cc1cccc(-c2cc(NCCc3ccccn3)nc(N)n2)c1C` [Example 129, 6-(2,3-dimethylphenyl)-4-N-[2-(pyridin-2-yl)ethyl]pyrimidine-2,4-diamine], with below 0.2 µM; and `Cc1cccc(-c2cc(NCCCc3ccccc3)nc(N)n2)c1C` [Example 131, 6-(2,3-dimethylphenyl)-4-N-(3-phenylpropyl)pyrimidine-2,4-diamine], with below 0.2 µM. As to `Cc1cccc(-c2cc(NCCOc3ccccc3)nc(N)n2)c1C` [Example 132, 6-(2,3-dimethylphenyl)-4-N-(2-phenoxyethyl)pyrimidine-2,4-diamine], the IC50 is below 0.2 µM. For the molecule `CCCCCNc1cc(-c2cccc(C)c2C)nc(N)n1` [Example 135, 6-(2,3-dimethylphenyl)-4-N-pentylpyrimidine-2,4-diamine], the IC50 was below 0.2 µM. As for `CNc1cc(-c2ccc(O)nc2)nc(N)n1` [Example 141, 5-[2-amino-6-(methylamino)pyrimidin-4-yl]pyridin-2-ol], the IC50 is below 0.2 µM. In the case of `CNc1cc(-c2ccc(CO)cc2)nc(N)n1` [Example 142, {4-[2-amino-6-(methylamino)pyrimidin-4-yl]phenyl}methanol], the IC50 was below 0.2 µM. On the same count and under the same terms, the figure for `CNc1cc(-c2cn(S(=O)(=O)c3ccc(Cl)cc3)c3ccccc23)nc(N)n1` [Example 144, 6-[1-(4-chlorobenzenesulfonyl)-1H-indol-3-yl]-4-N-methylpyrimidine-2,4-diamine] is below 0.2 µM; for `CNc1cc(-c2cc3cn[nH]c3cc2C)nc(N)n1` [Example 146, 4-N-methyl-6-(6-methyl-1H-indazol-5-yl)pyrimidine-2,4-diamine] it is below 0.2 µM; for `CNc1cc(-c2ccc3[nH]ccc3c2)nc(N)n1` [Example 148, 6-(1H-indol-5-yl)-4-N-methylpyrimidine-2,4-diamine] it is below 0.2 µM. The same measure, in the same setting: the figure for `CNc1cc(-c2ccncc2Cl)nc(N)n1` [Example 149, 6-(3-chloropyridin-4-yl)-4-N-methylpyrimidine-2,4-diamine] is below 0.2 µM; for `Cc1cccc(-c2cc(NC3CCC3)nc(N)n2)c1C` [Example 151, 4-N-cyclobutyl-6-(2,3-dimethylphenyl)pyrimidine-2,4-diamine] it is below 0.2 µM. On the same count and under the same terms, the figure for `CCNc1cc(-c2cn(S(=O)(=O)c3ccc(C)cc3)c3ccccc23)nc(N)n1` [Example 159, 4-N-ethyl-6-[1-(4-methylbenzenesulfonyl)-1H-indol-3-yl]pyrimidine-2,4-diamine] is below 0.2 µM. Regarding `Cc1cccc(-c2cc(NCC3CC3)nc(N)n2)c1C` [Example 164, 4-N-(cyclopropylmethyl)-6-(2,3-dimethylphenyl)pyrimidine-2,4-diamine], the IC50 was below 0.2 µM. Turning to `Cc1ccc(S(=O)(=O)n2cc(-c3cc(NCC4CC4)nc(N)n3)c3ccccc32)cc1` [Example 165, 4-N-(cyclopropylmethyl)-6-[1-(4-methylbenzenesulfonyl)-1H-indol-3-yl]pyrimidine-2,4-diamine], the IC50 was below 0.2 µM. Still for that read-out and setting: then `Cc1cccc(-c2cc(N[C@@H](C)C3CC3)nc(N)n2)c1C` [Example 168, 4-N-[(1S)-1-cyclopropylethyl]-6-(2,3-dimethylphenyl)pyrimidine-2,4-diamine], with below 0.2 µM; and `CNc1cc(-c2cc(C)ccc2Cl)nc(N)n1` [Example 171, 6-(2-chloro-5-methylphenyl)-4-N-methylpyrimidine-2,4-diamine], with below 0.2 µM; and `CNc1cc(-c2ccc(C(C)(C)O)cc2)nc(N)n1` [Example 173, 2-{4-[2-amino-6-(methylamino)pyrimidin-4-yl]phenyl}propan-2-ol], with below 0.2 µM.

`CNc1cc(-c2cccc3[nH]ccc23)nc(N)n1` [Example 174, 6-(1H-indol-4-yl)-4-N-methylpyrimidine-2,4-diamine]: the 50% inhibitory concentration (IC50) is below 0.2 µM. Still for that read-out and setting: the figure for `Nc1nc(NC2CCCCC2)cc(-c2cccc(Cl)c2Cl)n1` [Example 175, 4-N-cyclohexyl-6-(2,3-dichlorophenyl)pyrimidine-2,4-diamine] is below 0.2 µM. In turn, `CNc1cc(-c2cc(Cl)c(OC)cc2Cl)nc(N)n1` [Example 192, 6-(2,5-dichloro-4-methoxyphenyl)-4-N-methylpyrimidine-2,4-diamine] yielded an IC50 below 0.2 µM. Still for that read-out and setting: the figure for `CNc1cc(-c2cc(C(C)(C)C)ccc2OC)nc(N)n1` [Example 197, 6-(5-tert-butyl-2-methoxyphenyl)-4-N-methylpyrimidine-2,4-diamine] is below 0.2 µM; for `CNc1cc(-c2cc(C(C)C)ccc2OC)nc(N)n1` [Example 198, 6-[2-methoxy-5-(propan-2-yl)phenyl]-4-N-methylpyrimidine-2,4-diamine] it is below 0.2 µM. Same read-out and setting: then `CNc1cc(-c2cc(Cl)ccc2OC)nc(N)n1` [Example 201, 6-(5-chloro-2-methoxyphenyl)-4-N-methylpyrimidine-2,4-diamine], with below 0.2 µM; and `CNc1cc(-c2cc(F)ccc2C)nc(N)n1` [Example 202, 6-(5-fluoro-2-methylphenyl)-4-N-methylpyrimidine-2,4-diamine], with below 0.2 µM; and `CNc1cc(-c2cc(OC)ccc2OC)nc(N)n1` [Example 203, 6-(2,5-dimethoxyphenyl)-4-N-methylpyrimidine-2,4-diamine], with below 0.2 µM.
